In brackets after ≈: the same amount, converted by molar mass. Read-outs that look alike come from different tables or passages of the source.
Key:
[1] = Comparative test of solubility in water (Britton-Robinson buffer); settings: 25 °C
Experimental: 3-(3-(4-(Pyridin-2-yloxymethyl)-benzyl)-isoxazol-5-yl)-pyridin-2-ylamine described in Reference Example 1, which is the parent compound, and the compound of Example 1 were compared for solubility in a Britton-Robinson buffer (ionic strength: 0.3) at 25° C.

[2] = tested on: C. albicans E81022 strain; test: Experimental systemic candidal infection model in mice; type: in vivo; settings: for Mean Survival Days: tail vein at 0.5 and 9 hours after infection, observed until 14 days
Experimental: (1) Preparation of Fungal Inoculant
A standing culture of C. albicans E81022 strain was carried out for 24 hours at 35° C. in sabouraud dextrose agar medium (Difco), and the recovered fungal cells were suspended in sterile physiological saline (Otsuka Pharmaceutical). By counting the fungal number on cytometry plate, the suspension was diluted to 2×10^7 cells/mL with sterilized physiological saline to serve fungal inoculum.
The fungal inoculum was used in an amount of 0.2 mL to inoculate the mice in the tail vein (4×10^6 cells/mouse).
(3) Preparation of Agent Solution, and Treatment
The compound of Example 1 was dissolved in concentrations of 13 mg/mL and 3.25 mg/mL with a 50 mM glycine buffer with a pH of 10 (Wako Pure Chemicals), these solutions were then diluted 10 times with 5% glucose (Otsuka Pharmaceutical). At 0.5 and 9 hours after infection, 0.2 mL of the agent solution was administered into a tail vein of the mice. The agent concentrations were 2.5 and 10 mg/kg (calculated as the active form). The number of animals in one group was 5 animals.
The protective effect was determined by observing life/death until 14 days after infection and calculating the mean survival days. The protective effect on the systemic candidal infection was measured for the compound of Example 1 by the method described in section 2.

[3] = In vitro activity compared with the parent compound; settings: ratio to parent compound
[4] = Pharmacokinetic evaluation in mice; type: in vivo, ICR mice; settings: tail vein, 3 mg/kg, FIG. 15
Experimental: (§1) (1) Preparation of Administration Solution
(§2) (2) Administration, and Sampling of Blood and Plasma
Using five-week-old female ICR mice (Charles River Japan), with the number of mouse in one group being 2 mice, the compound according to the present invention and an active form thereof were administered into the tail vein in a dose of 3 mg/kg. The tail vein was punctured 0.25, 0.5, 1.5, 3, 5, and 8 hours after administration, and blood was collected with a heparin-treated pipette.
(§3) (3) Plasma Concentration Measurement Method

[5] = in vivo, 0.4 mg/kg
Experimental: as §1, §2
Blood was collected from the radial cutaneous vein 0.25, 0.5, 1, 2, 4, and 6 hours after administration using a heparin-treated syringe. The blood samples were put into sampling tubes and stored under ice cooling, they were then centrifuged for 5 minutes at 10,500×g and at 4° C. The plasma thus obtained was accurately divided into 5 μL amounts and stored at −20° C. until they were analyzed.
as §3
Imipramine hydrochloride (Sigma) was dissolved in a mixed solution of acetonitrile and methanol (1:1) so that the concentration would be 0.5 μmol/L, to prepare an internal standard substance solution (IS solution). The plasma was melted, 200 μL of IS solution was then added thereto and mixed, and this was centrifuged (deproteinated) for 10 minutes at 1500×g and at 4° C., the supernatant was then analyzed by LC-MS (Waters).

Row | solubility ([1]; Britton-Robinson buffer, pH 5, aqueous buffer) [µg/mL] | solubility ([1]; Britton-Robinson buffer, pH 7, aqueous buffer) [µg/mL] | solubility ([1]; Britton-Robinson buffer, pH 8, aqueous buffer) [µg/mL] | solubility ([1]; Britton-Robinson buffer, pH 9, aqueous buffer) [µg/mL] | SMILES | solubility ([1]; pH 5, aqueous buffer) [µg/mL] | solubility ([1]; pH 7, aqueous buffer) [µg/mL] | solubility ([1]; pH 8, aqueous buffer) [µg/mL] | solubility ([1]; pH 9, aqueous buffer) [µg/mL] | Mean Survival Days ([2]; 3.25 mg/kg (calculated as active form: 2.5 mg/kg)) [days] | Mean Survival Days ([2]; 13 mg/kg (calculated as active form: 10 mg/kg)) [days] | protective effect on the systemic candidal infection (survival versus untreated group) ([2]; life/death until 14 days after infection) | in vitro activity with respect to the parent compound (Reference Example 1) [3] | plasma concentration of the active form after administration of the compound of Example 1 [4] | plasma concentration of the compound of Example 1 [4] | plasma concentration of the active form after administration of the compound of Example 1 [5] | plasma concentration of the compound of Example 1 [5]
1 | < 100 | < 100 | < 100 | < 100 | Nc1ncccc1-c1cc(Cc2ccc(COc3ccccn3)cc2)no1 [Parent compound, 3-(3-(4-(Pyridin-2-yloxymethyl)-benzyl)-isoxazol-5-yl)-pyridin-2-ylamine, reference compound] |  |  |  |  |  |  |  |  |  |  |  | 
2 |  |  |  |  | Nc1c(-c2cc(Cc3ccc(COc4ccccn4)cc3)no2)ccc[n+]1COP(=O)([O-])O [Example 1, 2-Amino-1-((phosphonoxy)methyl)-3-(3-((4-((2-pyridinyloxy)methyl)phenyl)methyl)-5-isoxazolyl)-pyridinium] | 1900 (≈ 4.06 mM) | 10500 (≈ 22.4 mM) | 16400 (≈ 35 mM) | > 21100 | 7.4 | 12.8 | survived for a longer time as compared to the untreated group | 1/100 | increased quickly from immediately after administration | decreased quickly after administration | rose quickly | under the detection limit

Source: US8513287B2, “Heterocyclic ring and phosphonoxymethyl group substituted pyridine derivatives and antifungal agent containing same” (Eisai R&D Management Co., Ltd., priority 2007, dated 2013)
